Assay results: ChEMBL document CHEMBL3431459, “Roche carnitine palmitoyltransferase modulator screening data (supplementary data associated with the publication CHEMBL2216752)”
≈ marks a conversion by molar mass, not a printed value.

Columns and labels:
[1] = target: T1, Carnitine O-palmitoyltransferase 1, liver isoform (Rattus norvegicus, UniProt P32198); experiment: (§1) SUPPLEMENTARY: Inhibition of Carnitine palmitoyltransferase 1, liver isoform
T1 sequence (P32198 whole entry): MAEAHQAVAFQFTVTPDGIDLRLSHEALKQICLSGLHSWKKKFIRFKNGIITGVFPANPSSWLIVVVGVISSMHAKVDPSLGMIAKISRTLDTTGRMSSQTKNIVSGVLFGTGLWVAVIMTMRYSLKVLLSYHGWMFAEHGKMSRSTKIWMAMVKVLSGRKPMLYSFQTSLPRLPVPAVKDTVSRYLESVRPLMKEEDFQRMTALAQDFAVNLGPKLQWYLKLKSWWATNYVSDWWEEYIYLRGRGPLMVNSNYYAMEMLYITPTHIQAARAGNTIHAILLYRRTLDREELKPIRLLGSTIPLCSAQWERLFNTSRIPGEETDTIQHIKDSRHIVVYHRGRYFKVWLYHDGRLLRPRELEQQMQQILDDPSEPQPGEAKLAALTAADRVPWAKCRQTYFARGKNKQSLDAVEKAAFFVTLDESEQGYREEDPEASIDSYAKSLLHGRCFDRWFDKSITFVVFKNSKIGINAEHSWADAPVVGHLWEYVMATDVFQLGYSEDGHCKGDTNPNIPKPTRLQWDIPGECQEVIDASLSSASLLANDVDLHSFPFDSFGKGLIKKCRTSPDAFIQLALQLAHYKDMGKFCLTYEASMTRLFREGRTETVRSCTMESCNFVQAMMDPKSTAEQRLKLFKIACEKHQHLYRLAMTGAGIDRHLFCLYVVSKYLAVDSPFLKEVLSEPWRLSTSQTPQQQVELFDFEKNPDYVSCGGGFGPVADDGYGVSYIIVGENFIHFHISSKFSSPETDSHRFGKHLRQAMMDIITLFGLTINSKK

[2] = target: T2, Carnitine O-palmitoyltransferase 1, liver isoform (Homo sapiens, UniProt P50416); experiment: as §1
T2 sequence (P50416 whole entry): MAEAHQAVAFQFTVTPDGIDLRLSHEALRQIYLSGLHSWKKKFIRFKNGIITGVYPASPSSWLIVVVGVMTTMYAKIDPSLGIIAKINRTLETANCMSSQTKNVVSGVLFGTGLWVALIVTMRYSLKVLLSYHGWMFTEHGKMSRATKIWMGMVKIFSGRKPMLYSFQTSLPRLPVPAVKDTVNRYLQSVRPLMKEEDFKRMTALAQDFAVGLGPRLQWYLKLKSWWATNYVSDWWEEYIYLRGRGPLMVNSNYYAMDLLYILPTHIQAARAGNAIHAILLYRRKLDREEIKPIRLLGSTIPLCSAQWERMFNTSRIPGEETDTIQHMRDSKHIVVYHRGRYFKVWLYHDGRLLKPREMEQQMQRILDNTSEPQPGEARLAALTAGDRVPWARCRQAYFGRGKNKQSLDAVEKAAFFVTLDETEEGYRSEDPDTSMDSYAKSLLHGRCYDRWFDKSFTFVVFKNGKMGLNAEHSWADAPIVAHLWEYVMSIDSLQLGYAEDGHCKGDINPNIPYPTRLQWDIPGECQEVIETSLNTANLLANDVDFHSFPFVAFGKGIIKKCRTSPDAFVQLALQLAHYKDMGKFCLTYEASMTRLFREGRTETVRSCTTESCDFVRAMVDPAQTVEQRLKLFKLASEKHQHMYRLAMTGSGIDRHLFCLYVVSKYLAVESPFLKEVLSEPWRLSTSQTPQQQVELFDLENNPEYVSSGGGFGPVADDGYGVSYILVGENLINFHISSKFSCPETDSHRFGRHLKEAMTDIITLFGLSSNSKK

[3] = target: T3, Carnitine O-palmitoyltransferase 1, muscle isoform (Homo sapiens, UniProt Q92523); experiment: SUPPLEMENTARY: Inhibition of Carnitine palmitoyltransferase 1, muscle isoform; set-up: species or system Muscle tissue
T3 sequence (Q92523 whole entry): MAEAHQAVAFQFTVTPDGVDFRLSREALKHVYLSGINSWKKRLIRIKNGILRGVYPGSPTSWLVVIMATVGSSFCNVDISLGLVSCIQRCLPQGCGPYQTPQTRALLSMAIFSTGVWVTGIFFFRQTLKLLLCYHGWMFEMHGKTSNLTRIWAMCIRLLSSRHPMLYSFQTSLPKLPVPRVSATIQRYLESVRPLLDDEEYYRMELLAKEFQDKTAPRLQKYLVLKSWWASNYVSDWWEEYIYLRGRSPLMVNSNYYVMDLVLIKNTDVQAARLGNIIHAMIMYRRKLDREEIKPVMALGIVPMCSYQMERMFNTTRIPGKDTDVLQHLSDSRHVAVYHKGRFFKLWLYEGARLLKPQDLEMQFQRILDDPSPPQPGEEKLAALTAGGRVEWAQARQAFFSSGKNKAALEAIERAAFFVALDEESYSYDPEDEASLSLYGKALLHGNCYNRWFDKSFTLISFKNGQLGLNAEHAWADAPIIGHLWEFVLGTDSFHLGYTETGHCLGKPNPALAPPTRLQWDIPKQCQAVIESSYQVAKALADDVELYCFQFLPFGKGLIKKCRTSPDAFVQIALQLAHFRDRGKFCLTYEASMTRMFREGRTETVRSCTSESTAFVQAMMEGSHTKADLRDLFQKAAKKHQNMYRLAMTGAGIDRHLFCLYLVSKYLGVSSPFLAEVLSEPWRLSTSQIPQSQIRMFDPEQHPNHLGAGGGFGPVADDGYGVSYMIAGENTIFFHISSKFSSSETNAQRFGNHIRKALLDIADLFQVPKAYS

[4] = SUPPLEMENTARY: Lyophilisation Solubility Assay (LYSA); format: physicochemical; conditions: read-out: Kinetic_solubility
[5] = SUPPLEMENTARY: Lipophilicity (log D) Determination by high-throughput shake-flask; format: physicochemical; conditions: octanol/water
[6] = target: T4, Carnitine O-palmitoyltransferase 2, mitochondrial (Homo sapiens, UniProt P23786); experiment: (§2) SUPPLEMENTARY: Inhibition of Carnitine palmitoyltransferase 2
T4 sequence (P23786 whole entry): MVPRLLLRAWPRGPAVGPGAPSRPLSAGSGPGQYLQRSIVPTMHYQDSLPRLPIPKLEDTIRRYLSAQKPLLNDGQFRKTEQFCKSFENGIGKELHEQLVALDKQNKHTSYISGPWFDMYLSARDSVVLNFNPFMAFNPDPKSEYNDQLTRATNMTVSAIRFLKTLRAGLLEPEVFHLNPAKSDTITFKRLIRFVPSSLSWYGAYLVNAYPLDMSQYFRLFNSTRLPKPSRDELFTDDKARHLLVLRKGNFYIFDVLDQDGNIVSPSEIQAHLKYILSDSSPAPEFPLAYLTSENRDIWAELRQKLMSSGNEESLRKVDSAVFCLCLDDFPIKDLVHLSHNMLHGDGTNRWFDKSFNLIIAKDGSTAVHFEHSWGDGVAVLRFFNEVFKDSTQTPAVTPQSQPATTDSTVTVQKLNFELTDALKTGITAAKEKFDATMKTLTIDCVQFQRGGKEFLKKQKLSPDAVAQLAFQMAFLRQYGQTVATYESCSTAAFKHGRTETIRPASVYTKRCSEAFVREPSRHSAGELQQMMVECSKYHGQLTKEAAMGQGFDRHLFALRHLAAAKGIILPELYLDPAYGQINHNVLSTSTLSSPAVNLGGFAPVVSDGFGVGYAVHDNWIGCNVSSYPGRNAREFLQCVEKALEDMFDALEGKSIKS

[7] = target: T5, Carnitine O-palmitoyltransferase 2, mitochondrial (Rattus norvegicus, UniProt P18886); experiment: as §2
T5 sequence (P18886 whole entry): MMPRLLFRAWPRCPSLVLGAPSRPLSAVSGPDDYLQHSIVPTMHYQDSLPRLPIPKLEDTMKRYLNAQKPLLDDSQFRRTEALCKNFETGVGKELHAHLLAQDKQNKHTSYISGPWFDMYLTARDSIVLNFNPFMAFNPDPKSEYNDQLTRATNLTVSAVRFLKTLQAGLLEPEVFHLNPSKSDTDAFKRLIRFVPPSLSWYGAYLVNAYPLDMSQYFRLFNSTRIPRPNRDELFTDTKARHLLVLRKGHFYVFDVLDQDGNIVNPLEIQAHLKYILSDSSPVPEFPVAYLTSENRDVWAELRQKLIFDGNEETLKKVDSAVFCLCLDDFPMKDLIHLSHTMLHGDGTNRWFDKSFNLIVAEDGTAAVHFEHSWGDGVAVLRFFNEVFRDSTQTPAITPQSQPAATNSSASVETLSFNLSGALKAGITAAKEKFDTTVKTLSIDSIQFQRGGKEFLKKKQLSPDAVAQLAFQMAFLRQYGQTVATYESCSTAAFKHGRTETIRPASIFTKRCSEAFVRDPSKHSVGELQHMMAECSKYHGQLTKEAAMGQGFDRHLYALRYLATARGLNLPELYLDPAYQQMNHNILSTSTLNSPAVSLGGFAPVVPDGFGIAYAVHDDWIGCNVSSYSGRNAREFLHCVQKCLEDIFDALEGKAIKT

[8] = SUPPLEMENTARY: PAMPA permeability assay; format: physicochemical; conditions: read-out: Permeability

Compound	IC50 [1]	IC50 [2]	IC50 [3]	solubility kinetic [4]	logD [5]	IC50 [6]	IC50 [7]	Papp [8]
NC(=O)c1ccc(-c2csc([C@H]3CCCCN3C(=O)COc3ccccc3)n2)cc1	0.484 µM	0.239 µM	> 100 µM	0.043 mg/mL (≈ 102 µM)	2.26	18.9 µM	75.2 µM	54.8 nm/s
Cc1cc(-c2nc([C@H]3CCCCN3C(=O)COc3ccccc3)no2)no1	0.449 µM	0.166 µM	> 100 µM	0.039 mg/mL (≈ 106 µM)	2.62	> 100 µM	> 100 µM	67.8 nm/s
O=C(O)c1ccc(NC(=O)c2ccc3ccn(S(=O)(=O)c4cccc(Cl)c4)c3c2)cc1	0.0097 µM	0.0167 µM	26.5 µM	0.001 mg/mL (≈ 2.2 µM)	2.99	2.29 µM	3.28 µM	6 nm/s
COc1ccc(Cl)cc1CN1C(=O)OC(C)(C)c2ccc(C(=O)Nc3nc(CC(=O)O)cs3)cc21	0.0597 µM	0.0587 µM	1.01 µM	0.15 mg/mL (≈ 291 µM)	1.17	> 100 µM	> 100 µM	19.3 nm/s
Cc1cc(C)cc(S(=O)(=O)c2n[nH]c3ccc(C(=O)Nc4ccc(C(=O)O)cc4)cc23)c1	0.0264 µM	0.0512 µM	1.25 µM	0.04 mg/mL (≈ 89 µM)	1.89	1.36 µM	4.34 µM	0.3 nm/s
Cc1cc(C)cc(S(=O)(=O)N2CCSc3ccc(C(=O)Nc4ccc(C(=O)O)cc4)cc32)c1	0.026 µM	0.051 µM	2.68 µM	0.125 mg/mL (≈ 259 µM)	1.75	1.58 µM	2.62 µM	17.9 nm/s
COc1ccc(Cl)cc1S(=O)(=O)c1cn(C)c2ccc(C(=O)Nc3ccc(C(=O)O)cc3)cc12	0.0518 µM	0.0716 µM	2.32 µM	0.012 mg/mL (≈ 24.1 µM)	2.36	0.579 µM	4.27 µM	4.7 nm/s
COc1ccc(Cl)cc1S(=O)(=O)N1CCOc2c(C)cc(C(=O)Nc3ccc(CC(=O)O)cc3)cc21	0.206 µM	0.272 µM	3.65 µM	0.503 mg/mL (≈ 946 µM)	0.68	> 100 µM	> 100 µM	20.8 nm/s
Cc1cc(-c2noc([C@H]3CCCCN3C(=O)COc3ccccc3)n2)n(C)n1	0.507 µM	0.119 µM	> 100 µM	0.03 mg/mL (≈ 78.7 µM)	3.15	> 100 µM	> 100 µM	43.4 nm/s
O=C1NCc2ccc(-c3n[nH]c([C@H]4CCCCN4C(=O)COc4ccccc4)n3)cc2N1	0.546 µM	0.192 µM	> 100 µM	0.077 mg/mL (≈ 178 µM)	2.18	40.2 µM	44.1 µM	21.8 nm/s
CC(=O)Nc1cc(-c2n[nH]c([C@H]3CCCCN3C(=O)COc3ccccc3)n2)ccc1F	0.375 µM	0.0795 µM	> 100 µM	0.121 mg/mL (≈ 277 µM)	2.43	45.9 µM	> 100 µM	26.7 nm/s
O=C(COc1ccccc1)N1CCCC[C@@H]1c1noc(-c2ccc(C(F)(F)F)nc2)n1	0.2 µM	0.197 µM	> 100 µM	0.008 mg/mL (≈ 18.5 µM)	3.38	6.6 µM	71 µM	22.1 nm/s
O=C(COc1ccccc1)N1CCCC[C@@H]1c1noc(-c2ccc3cccnc3n2)n1	0.153 µM	0.129 µM	> 100 µM	0.0315 mg/mL (≈ 75.8 µM)	2.35	21.4 µM	> 100 µM	54.3 nm/s
O=C(COc1ccccc1)N1CCCC[C@@H]1c1noc(-c2ccc3ncsc3c2)n1	0.147 µM	0.177 µM	> 100 µM	0.002 mg/mL (≈ 4.76 µM)	3.31	18 µM	> 100 µM	24 nm/s
